Here are results for eight compounds from patent US7595330B2, “Benzimidazole thiophene compounds” (SmithKline Beecham Corporation, priority 2005, dated 2009).

In general, fraction unbound refers to the share of the substance not bound to proteins or other matrix. The solubility is how much of the substance goes into solution per volume.

Data set [1] concerns the target T1, PLK1 kinase domain (Homo sapiens, UniProt P53350).
T1 construct: made in house; host or cells: baculovirus infected T. ni cells
Briefly: Assay for inhibition of PLK1 (SPA, 33P-ATP, biotinylated peptide substrate). The format is biochemical. The following applies: 1 μM ATP, 2 nM PLK1 kinase domain; read-out: PLK1 pIC50 (converted). On the procedure:
I. Assay for Inhibition of PLK1
All procedures were performed at 4° C. Cells were lysed in 50 mM HEPES, 200 mM NaCl, 50 mM imidazole, 5% glycerol; pH 7.5. The homogenate was centrifuged at 14K rpm in a SLA-1500 rotor for 1 h and the supernatant filtered through a 1.2 micron filter. The supernatant was loaded onto a Nickel chelating Sepharose (Amersham Pharmacia) column and washed with lysis buffer. Protein was eluted using 20%, 30% and 100% buffer B steps where buffer B is 50 mM HEPES, 200 mM NaCl, 300 mM imidazole, 5% glycerol; pH 7.5. Fractions containing PLK were determined by SDS-PAGE. Fractions containing PLK were diluted five-fold with 50 mM HEPES, 1 mM DTT, 5% glycerol; pH 7.5, then loaded on an SP Sepharose (Amersham Pharmacia) column. After washing the column with 50 mM HEPES, 1 mM DTT, 5% glycerol; pH 7.5, PLK was step eluted with 50 mM HEPES, 1 mM DTT, 500 mM NaCl; 5% glycerol; pH 7.5. PLK was concentrated using a 10 kDa molecular weight cutoff membrane and then loaded onto a Superdex 200 gel filtration (Amersham Pharmacia) column equilibrated in 25 mM HEPES, 1 mM DTT, 500 mM NaCl, 5% glycerol; pH 7.5. Fractions containing PLK were determined by SDS-PAGE. PLK was pooled, aliquoted and stored at −80° C. Samples were quality controlled using mass spectrometry, N-terminal sequencing and amino acid analysis.
B. Enzyme activity +/− inhibitors was determined as follows: All measurements were obtained under conditions where signal production increased linearly with time and enzyme. Test compounds were added to white 384-well assay plates (0.1 μL for 10 μL and some 20 μL assays, 1 μL for some 20 μL assays) at variable known concentrations in 100% DMSO. DMSO (1-5% final, as appropriate) and EDTA (65 mM in reaction) were used as controls.
Reaction Mix (10 or 20 μL) was quickly added to each well immediately following addition of enzyme via automated liquid handlers and incubated 1-1.5 h at 22° C. The 20 μL enzymatic reactions were stopped with 50 μL of stop mix (50 mM EDTA, 4.0 mg/ml Streptavidin SPA beads in Standard Dulbecco's PBS (without Mg^2+ and Ca^2+), 50 μM ATP) per well. The 10 μL reactions were stopped with 10 μL of stop mix (50 mM EDTA, 3.0 mg/mL Streptavidin-coupled SPA Imaging Beads (“LeadSeeker”) in Standard Dulbecco's PBS (without Mg^2+ and Ca^2+), 50 μM ATP) per well. Plates were sealed with clear plastic seals, spun at 500×g for 1 min or settled overnight, and counted in Packard TopCount for 30 seconds/well (regular SPA) or imaged using a Viewlux imager (LeadSeeker SPA). Signal above background (EDTA controls) was converted to percent inhibition relative to that obtained in control (DMSO-only) wells.

In data set [2] the test system is HCT116. The data set can be described thus: Methylene blue growth inhibition assay, HCT116. The format is cell-based. The note with it: Homo sapiens. The procedure:
(§1) II. Methylene Blue Growth Inhibition Assay—Inhibition of Cell Proliferation by PLK1 Inhibitors
(§2) Generally, exponentially growing cell lines of different tumor origins, cultured in appropriate media containing 10% fetal bovine serum at 37° C. in a 5% CO2 incubator were plated at low density (less than 2000 cells/well) in 96-well plates. […]. Seventy two hours post-treatment, cell numbers were determined using 100 μl per well of methylene blue (Sigma M9140) (0.5% in 50:50 Ethanol:water). Stain was incubated at room temperature for 30 minutes before plates were rinsed and dye solubilized in 1% N-lauroyl sarcosine, sodium salt, (Sigma L5125, in PBS) (further details of a methylene blue assay are described below). Plates were read on a microplate reader, measuring the OD at 620 nm.
(§3) . The data are shown in Table 1 below and represent a compilation of several different experiments, each performed using the general parameters outlined above, although minor variations may have been employed in some instances.
(§4) In one assay, normal human foreskin fibroblasts (HFF), human colon (HCT116, RKO), lung (H460, A549) and breast (MCF7) tumor cell lines were cultured in high glucose DMEM (Life Technologies) containing 10% fetal bovine serum (FBS) at 37° C. in a humidified 5% CO2, 95% air incubator. Cells were harvested using trypsin/EDTA, counted using a haemocytometer, and plated in 100 μL of culture media per well, at the following densities, in a 96-well tissue culture plate (Falcon 3075): HFF 5,000 cells/well, HCT116 3,000 cells/well, RKO 2,500 cells/well, H460 2,500 cells/well, A549 5,000 cells/well, MCF7 4,000 cells/well. The next day, compounds were diluted in low glucose DMEM containing 100 μg/mL gentamicin, at twice the final required concentration, from 10 mM stock solutions in DMSO. 100 μL/well of these dilutions were added to the 100 μL of media currently in the assay plates. Medium containing 0.6% DMSO was added to control wells. The final concentration of DMSO in all wells was 0.3%. Cells were incubated at 37° C., 5% CO2 for 72 h. Medium was removed by aspiration. Cell biomass was estimated by staining cells with 80 μL per well methylene blue (Sigma M9140, 0.5% in 50:50 ethanol:water), and incubation at room temperature for 30-60 min. Stain was removed by aspiration and the plates rinsed by immersion in water, then air-dried. To release stain from the cells, 100 μL of solubilization solution was added (1% N-lauroyl sarcosine, Sodium salt, Sigma L5125, in PBS), and plates were shaken gently for about 30 min. Optical density at 620 nm was measured on a microplate reader. Percent inhibition of cell growth was calculated relative to vehicle treated control wells. […].

In data set [3] the test system is H460. Briefly: Methylene blue growth inhibition assay, H460. The format is cell-based. The note with it: Homo sapiens. On the procedure:
as §1, §2, §3, §4

Data set [4] has as its system MCF7. The data set can be described thus: Methylene blue growth inhibition assay, MCF7. The format is cell-based. The following applies: Homo sapiens. On the procedure: as §1, §2, §3, §4
The test system of data set [5] is A549. Briefly: Methylene blue growth inhibition assay, A549. The format is cell-based. The following applies: Homo sapiens. The procedure:
as §1, §2, §3, §4

The subject of data set [6] is RKO. Briefly: Methylene blue growth inhibition assay, RKO. The format is cell-based. The following applies: Homo sapiens, 72 h. The procedure: as §1, §2, §3, §4
Data set [7] relates to normal human foreskin fibroblasts (HFF). The data set can be described thus: Methylene blue growth inhibition assay, HFF. The format is cell-based. The following applies: Fibroblast, 72 h. The procedure:
as §1, §2, §3, §4

Data set [8] concerns human plasma proteins. Briefly: Protein binding to human plasma proteins using equilibrium dialysis. The format is in vitro ADME. The following applies: pH 7.4, equilibrium dialysis 6 h, 37° C. The procedure: III. Determination of Protein Binding to Human Plasma Proteins Using Equilibrium Dialysis
96 Well Plate (High Throughput Dialysis): Stock solutions of compounds were spiked into human plasma at a target concentration of 2000 ng/mL. The mixture was inverted gently several times to insure homogeneity and triplicate 50 μL aliquots were collected to verify initial concentrations. Following assembly of dialysis plate (HTDialysis membrane strips, molecular weight cut off limit of 12,000-14,000 daltons), spiked plasma (150 μL) was placed in the donor compartment of the well and Phosphate Buffered Saline pH 7.4 (150 μL) in the receiver compartment. Eight wells were set up per compound and plasma type. Plate was placed in a 37° C. incubator on a plate shaker. Following the 6 h incubation period, the plate was removed. Single 50 μL aliquots from each donor and receiver compartment (per well) were analyzed. Sample analysis was by LC/MS/MS (results reported as Drug Peak Area/Internal Standard Peak Area ratios). Protein binding assay can also be performed using dialysis cells instead of HT Dialysis 96 well plates. In Table 1, % Protein Binding, +=>98%; ++=95-98%: +++=<95%.
Background: In equilibrium dialysis free small molecules cross a membrane that holds back macromolecules.

A short description of data set [9]: High throughput solubility assay. The format is physicochemical. The note with it: aqueous buffer, pH 7.4, 0.05M phosphate buffer. The procedure: IV. High Throughput Solubility Assay
Two samples are prepared for each compound. One (the standard sample) contains the compound at a fixed concentration of 20 μM in an aqueous/organic mixed solvent cocktail. The other (the test sample) contains the compound at a maximum concentration of 200 μM in pH 7.4, 0.05M phosphate buffer and shaking for 24 h. The test sample is filtered by 0.45μ filter and then spun for 10 min to remove any undissolved solid. HPLC analyses are preformed on these samples. The peak areas are used for computing solubility.

Where [10] appears, read: HCT-116, methylene blue, 72 h, HCT116, read-out: HCT116 IC50.
Where [11] appears, read: NCI-H460, methylene blue, 72 h, H460, read-out: H460 IC50.
[12] abbreviates: methylene blue, 72 h, MCF7, read-out: MCF7 IC50.
Where [13] appears, read: methylene blue, 72 h, A549, read-out: A549 IC50.
Setting [14] is: methylene blue, read-out: RKO IC50.
Setting [15] is: methylene blue, HFF normal fibroblasts, read-out: HFF IC50.

Like-named read-outs stand apart in the source and are kept apart here. Some results are limits rather than exact numbers.

T1 sequence (P53350 21-346): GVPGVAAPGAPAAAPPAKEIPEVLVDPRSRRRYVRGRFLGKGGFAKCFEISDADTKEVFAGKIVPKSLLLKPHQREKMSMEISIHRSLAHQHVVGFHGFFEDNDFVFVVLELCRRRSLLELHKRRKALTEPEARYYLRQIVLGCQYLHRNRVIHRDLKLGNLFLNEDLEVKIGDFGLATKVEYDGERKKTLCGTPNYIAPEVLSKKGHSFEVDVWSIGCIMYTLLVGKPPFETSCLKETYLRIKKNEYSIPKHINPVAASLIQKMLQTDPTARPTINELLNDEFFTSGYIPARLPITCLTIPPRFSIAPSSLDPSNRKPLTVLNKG

As for `CS(=O)(=O)c1ccc2ncn(-c3cc(OCc4ccccc4C(F)(F)F)c(C(N)=O)s3)c2c1` [Com. Ex 121, reference compound], the IC50 is 10 to 1000 nM in [1]; greater than 1 µM in data set [2] (setting [10]); greater than 1 µM in [3] (setting [11]); greater than 1 µM in data set [4] (setting [12]); greater than 1 µM in data set [5] (setting [13]); greater than 1 µM in [6] (setting [14]). Moreover, the IC50 in data set [7] (setting [15]) is greater than 1 µM. In data set [8], this compound came in with a fraction unbound at 6 h, 2000 ng/mL of 0.02 to 0.05.
For `COc1cc2ncn(-c3cc(OC(C)c4ccccc4Cl)c(C(N)=O)s3)c2cc1OC` (stereo not drawn) [Com. Ex 126, reference compound], the IC50 is less than 0.1 µM in data set [2] (HCT-116, 72 h, read-out: HCT116 IC50 (μM)); less than 0.1 µM in data set [3] (NCI-H460, 72 h, read-out: H460 IC50 (μM)); greater than 1 µM in data set [4] (MCF7, 72 h, read-out: MCF7 IC50 (μM)); less than 0.1 µM in data set [5] (A549, 72 h, read-out: A549 IC50 (μM)); less than 0.1 µM in data set [6] (read-out: RKO IC50 (μM)); 0.1 to 1 µM in [7] (read-out: HFF IC50 (μM)). This compound had a fraction unbound at 6 h, 2000 ng/mL in data set [8] of less than 0.02.
Regarding `COc1cc2ncn(-c3cc(OC(C)c4ccccc4C(F)(F)F)c(C(N)=O)s3)c2cc1OC` (stereo not drawn) [Com. Ex 127, reference compound], the IC50 in data set [1] was less than 10 nM; in data set [2] (setting [10]), 0.1 to 1 µM; in [3] (setting [11]), less than 0.1 µM; in data set [4] (setting [12]) it was 0.1 to 1 µM; in data set [5] (setting [13]), less than 0.1 µM; in data set [6] (setting [14]), less than 0.1 µM. Further, the IC50 in data set [7] (setting [15]) is greater than 1 µM. Further, the fraction unbound at 6 h, 2000 ng/mL in [8] is less than 0.02. The solubility at 24 h in data set [9] is less than 30 µM.
For `COc1cc2ncn(-c3cc(OCc4ccccc4C(F)(F)F)c(C(N)=O)s3)c2cc1OCCN1CCN(C)CC1` [Com. Ex 136, reference compound], the IC50 in data set [1] is 10 to 1000 nM; in data set [2] (setting [10]), 0.1 to 1 µM; in [3] (setting [11]), 0.1 to 1 µM; in data set [4] (setting [12]), 0.1 to 1 µM; in [6] (setting [14]) it was 0.1 to 1 µM; in data set [7] (setting [15]) it was greater than 1 µM. In data set [8], this compound returned a fraction unbound at 6 h, 2000 ng/mL greater than 0.05.
In the case of `C[C@@H](Oc1cc(-n2cnc3ccc(CN4CCN(C)CC4)cc32)sc1C(N)=O)c1ccccc1Cl` [Example 4, 3-{[(1R)-1-(2-Chlorophenyl)ethyl]oxy}-5-{6-[(4-methylpiperazin-1-yl)methyl]-1H-benzimidazol-1-yl}thiophene-2-carboxamide], the IC50 in data set [1] was less than 10 nM; in data set [2] (setting [10]), less than 0.1 µM; in data set [3] (setting [11]), less than 0.1 µM; in [4] (setting [12]), less than 0.1 µM; in data set [5] (setting [13]) it was less than 0.1 µM; in data set [6] (setting [14]), less than 0.1 µM. The IC50 in data set [7] (setting [15]) was less than 0.1 µM. Besides, the solubility at 24 h in data set [9] was greater than 100 µM.
Take `C[C@@H](Oc1cc(-n2cnc3ccc(OC4CCNCC4)cc32)sc1C(N)=O)c1ccccc1Cl` [Example 6, 3-{[(1R)-1-(2-Chlorophenyl)ethyl]oxy}-5-[6-(4-piperidinyloxy)-1H-benzimidazol-1-yl]-2-thiophenecarboxamide]: the IC50 is less than 10 nM in [1]; less than 0.1 µM in [2] (setting [10]); less than 0.1 µM in data set [3] (setting [11]); less than 0.1 µM in data set [5] (setting [13]); less than 0.1 µM in [6] (setting [14]); 0.1 to 1 µM in data set [7] (setting [15]). Moreover, the fraction unbound at 6 h, 2000 ng/mL in [8] was greater than 0.05. In data set [9], the solubility at 24 h was greater than 100 µM.
`C[C@@H](Oc1cc(-n2cnc3ccc(OC4CCN(C)CC4)cc32)sc1C(N)=O)c1ccccc1C(F)(F)F` [Example 7, 5-{6-[(1-Methyl-4-piperidinyl)oxy]-1H-benzimidazol-1-yl}-3-({(1R)-1-[2-(trifluoromethyl)phenyl]ethyl}oxy)-2-thiophenecarboxamide] gave a fraction unbound at 6 h, 2000 ng/mL in [8] greater than 0.05. Moreover, in data set [9], the solubility at 24 h is greater than 100 µM.
For `C[C@@H](Oc1cc(-n2cnc3ccc(OC4CCN(C)CC4)cc32)sc1C(N)=O)c1ccccc1Cl` [Example 8, 3-{[(1R)-1-(2-Chlorophenyl)ethyl]oxy}-5-{6-[(1-methyl-4-piperidinyl)oxy]-1H-benzimidazol-1-yl}-2-thiophenecarboxamide], in that order: greater than 0.05 and greater than 100 µM.
